Measurements published in patent publication US9487489B2, “Halogen-substituted pyrazole derivatives as pest-control agents” (BAYER CROPSCIENCE AKTIENGESELLSCHAFT, priority 2013, dated 2016).

Experiments:
[1] = test system: adult cat fleas (Ctenocephalides felis); experiment: Ctenocephalides felis oral test (CTECFE); assay type: in vivo; settings: application rate 100 ppm in citrated cattle blood; after 2 days
Description: D. Ctenocephalides felis-oral Test (CTECFE)
(§1) Solvent: dimethyl sulphoxide
To produce a suitable preparation of active compound, 10 mg of active compound are mixed with 0.5 ml of dimethyl sulphoxide. Dilution with citrated cattle blood gives the desired concentration.
About 20 unfed adult cat fleas (Ctenocephalides felis) are placed into a chamber which is closed at the top and bottom with gauze. A metal cylinder whose bottom end is closed with a parafilm is placed onto the chamber. The cylinder contains the blood/active ingredient preparation, which can be imbibed by the fleas through the parafilm membrane.
After 2 days, the kill in % is determined 100% means that all of the fleas have been killed; 0% means that none of the fleas have been killed.

[2] = test system: engorged adult female cattle ticks (Boophilus microplus); experiment: Boophilus microplus injection test (BOOPMI Inj); assay type: in vivo; settings: application rate 20 μg/animal; injection into abdomen; assessed after 7 days
Description: C. Boophilus microplus-injection Test (BOOPMI Inj)
as §1
To produce a suitable preparation of active compound, 10 mg of active compound are mixed with 0.5 ml of solvent, and the concentrate is diluted with solvent to the desired concentration.
1 μl of the active compound solution is injected into the abdomen of 5 engorged adult female cattle ticks (Boophilus microplus). The animals are transferred into dishes and kept in a climate-controlled room.
The activity is assessed after 7 days by laying of fertile eggs. Eggs whose fertility is not visible from the outside are stored in a climate-controlled cabinet until the larvae hatch after about 42 days. An efficacy of 100% means that none of the ticks has laid any fertile eggs; 0% means that all eggs are fertile.

[3] = test system: L1 larvae of the Australian sheep blowfly (Lucilia cuprina); experiment: Lucilia cuprina test (LUCICU); assay type: in vivo; settings: application rate 100 ppm; after 2 days
Description: E. Lucilia cuprina Test (LUCICU)
as §1
(§2) To produce a suitable preparation of active compound, 10 mg of active compound are mixed with 0.5 ml of dimethyl sulphoxide, and the concentrate is diluted with water to the desired concentration.
About 20 L1 larvae of the Australian sheep blowfly (Lucilia cuprina) are transferred into a test vessel containing minced horsemeat and the active compound preparation of the desired concentration.
After 2 days, the kill in % is determined 100% means that all of the larvae have been killed; 0% means that none of the larvae have been killed.

[4] = test system: caterpillars of the armyworm (Spodoptera frugiperda); experiment: Spodoptera frugiperda spray test (SPODFR); assay type: in vivo; settings: maize leaf discs, after 7 days
Procedure, shortened: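 Percent kill read at day 7 on caterpillar-infested maize leaf discs. Discs were first sprayed with aqueous emulsifier-containing (1000 ppm) preparations made from acetone/dimethylformamide solutions, and dried. Scale: 0% none dead, 100% all dead.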

[5] = test system: greenhouse red spider mite (Tetranychus urticae); experiment: Tetranychus urticae spray test, OP-resistant (TETRUR); assay type: in vivo; settings: bean leaf discs, after 6 days
Procedure, shortened: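 Percent kill, scored 6 days post-spray (0% = none dead, 100% = all dead), on Phaseolus vulgaris leaf discs infested with every life stage of the OP-resistant spider mite. Compound dissolved in acetone plus DMF, diluted to test concentration with emulsifier-containing water (1000 ppm).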

[6] = test system: larvae of the mustard beetle (Phaedon cochleariae); experiment: Phaedon cochleariae spray test (PHAECO); assay type: in vivo; settings: Chinese cabbage leaf discs, after 7 days
Procedure, shortened: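 Kill of mustard beetle larvae is read as % mortality 7 days after spraying. Spray liquid: active compound in acetone plus dimethylformamide, brought up with water holding 1000 ppm alkylaryl polyglycol ether emulsifier and diluted further in emulsifier-water.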

[7] = test system: adult cat fleas (Ctenocephalides felis); experiment: Ctenocephalides felis in vitro contact test with adult cat fleas (T1); settings: after 48 h
Procedure, shortened: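 Adult cat fleas (Ctenocephalides felis), 5-10 per tube, were exposed to the inner surface of 25 ml test tubes coated with compound in acetone. Tubes were incubated lying flat under ambient conditions. Efficacy was then read by standing tubes upright and knocking the fleas to the floor. Fleas that stayed motionless or moved uncoordinatedly counted as dead or moribund, where 100% means all fleas dead or moribund and 0% means none harmed.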

[8] = test system: adult houseflies (Musca domestica); experiment: Musca domestica test (MUSCDO); assay type: in vivo; settings: application rate 100 ppm; after 2 days
Description: F. Musca domestica Test (MUSCDO)
as §1, §2
Vessels containing a sponge treated with sugar solution and the active compound preparation of the desired concentration are populated with 10 adult houseflies (Musca domestica).
After 2 days, the kill in % is determined. 100% means that all of the flies have been killed; 0% means that none of the flies have been killed.

[9] = logP determination by HPLC on a reversed-phase column (C18), EEC Directive 79/831 Annex V.A8; assay type: physicochemical; settings: HPLC on reversed-phase column (C18), acetonitrile/water with formic acid, EEC Directive 79/831 Annex V.A8
Procedure, shortened: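 Per EEC 79/831 Annex V.A8, values derive from HPLC retention at 2.0 ml/min and 55° C on a 50*4.6 C18 column. The 10→95% acetonitrile gradient (0.1%/0.09% formic acid) lasted 4.25 min plus a 1.25 min hold; mass detection was by MSD.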

[10] = test system: adult dog ticks (Rhipicephalus sanguineus); experiment: Rhipicephalus sanguineus in vitro contact test with adult brown dog ticks (T2); settings: after 48 h
Description: T2. Rhipicephalus sanguineus-in vitro Contact Tests with Adult Brown Dog Ticks
For the coating of the test tubes, initially 9 mg of active compound are dissolved in 1 ml of acetone p.a. and then diluted with acetone p.a. to the desired concentration. By turning and rocking on an orbital shaker (2 h of rocking rotation at 30 rpm), 250 μl of the solution are distributed homogeneously on the internal walls and the floor of a 25 ml test tube. At 900 ppm active compound solution and 44.7 cm^2 internal surface, an area dose of 5 μg/cm^2 is achieved for homogeneous distribution.
After evaporation of the solvent, the tubes are populated with 5-10 adult dog ticks (Rhipicephalus sanguineus), sealed with a perforated plastic lid and incubated in a horizontal position in the dark at room temperature and ambient humidity. After 48 h, the efficacy is determined. To this end, the ticks are knocked to the floor of the tube and incubated on a hotplate at 45-50° C. for at most 5 min Ticks which remain motionless on the floor or move in an uncoordinated manner such that they are not able to deliberately avoid the heat by climbing upwards are considered to be dead or moribund.
An efficacy of 100% means that all ticks were dead or moribund. 0% efficacy means that none of the ticks had been damaged.

Structure (SMILES)	efficacy (kill in %) [1] [%]	efficacy (laying of fertile eggs) [2] [%]	efficacy (kill in %) [3] [%]	efficacy in % ([4]; application rate 500 g/ha) [%]	efficacy in % ([5]; application rate 500 g/ha) [%]	efficacy in % ([6]; application rate 500 g/ha) [%]	efficacy (dead or moribund fleas) ([7]; application rate 1 μg/cm^2) [%]	efficacy (dead or moribund fleas) ([7]; application rate 5 μg/cm^2) [%]	efficacy (kill in %) [8] [%]	logP [9]	efficacy in % ([4]; application rate 100 g/ha) [%]	efficacy in % ([5]; application rate 100 g/ha) [%]	efficacy in % ([6]; application rate 100 g/ha) [%]	efficacy (dead or moribund ticks) ([10]; application rate 1 μg/cm^2) [%]	efficacy (dead or moribund ticks) ([10]; application rate 5 μg/cm^2) [%]
Cn1nc(C(F)(F)C(F)(F)F)c(C(F)(F)F)c1-n1cc(-c2ccc(Cl)c(C(=O)NCc3cc[nH]n3)c2)cn1 [Ic-157]	90	100	100	100	100	100									
Cn1nc(C(F)(F)C(F)(F)F)c(C(F)(F)F)c1-n1cc(-c2ccc(Cl)c(C(=O)Nc3cccnc3)c2)cn1 [Ic-149]	100	100	100	100	100	100	80	100							
Cn1nc(C(F)(F)C(F)(F)F)c(C(F)(F)F)c1-n1cc(-c2cc(C(=O)NC3(C#N)CC3)cc(C(F)(F)F)c2)cn1 [Ic-60]	100	100	100	100		100			100						
Cn1nc(C(F)(F)C(F)(F)F)c(C(F)(F)F)c1-n1cc(-c2cccc(C(=O)NCc3ccccc3)c2)cn1 [Ic-17]	90	100	100							4.31	100	100	100		
Cn1nc(C(F)(F)C(F)(F)F)c(C(F)(F)F)c1-n1cc(-c2ccc(Cl)c(C(=O)Nc3cc[nH]n3)c2)cn1 [Ic-150]	100	100	100	100	100	100									
Cn1nc(C(F)(F)C(F)(F)F)c(C(F)(F)F)c1-n1cc(-c2cccc(C(=O)NCc3cccs3)c2)cn1 [Ic-20]	100	100	100							4.20	100	100	100		
COCC(C)NC(=O)c1cc(-c2cnn(-c3c(C(F)(F)F)c(C(F)(F)C(F)(F)F)nn3C)c2)ccc1Cl (centres unmarked) [Ic-165]	100	100	100	100	100	100	100	100							
Cn1nc(C(F)(F)C(F)(F)F)c(C(F)(F)F)c1-n1cc(-c2ccc(Cl)c(C(=O)Nc3ccncc3)c2)cn1 [Ic-22]	100	100	100							2.38	100	100	100		
Cc1ccc(C(=O)NC2(C#N)CC2)cc1-c1cnn(-c2c(C(F)(F)F)c(C(F)(F)C(F)(F)F)nn2C)c1 [Ic-58]	100	100	100			100			80						
Cn1nc(C(F)(F)C(F)(F)F)c(C(F)(F)F)c1-n1cc(-c2cc(C(=O)NC3(C#N)CC3)ccc2Cl)cn1 [Ic-45]	100		100	100		100			100						
Cc1c(-c2ccc(Cl)c(C(=O)NC3CC3)c2)cnn1-c1c(C(F)(F)F)c(C(F)(F)C(F)(F)F)nn1C [Ic-13]	100	100	100							3.88	100	90	100		
Cc1ccc(C(=O)NC2CC2)cc1-c1cnn(-c2c(C(F)(F)F)c(C(F)(F)C(F)(F)F)nn2C)c1 [Ic-57]	100		100						100				83		
COc1cc(C(=O)NC2(C#N)CC2)cc(-c2cnn(-c3c(C(F)(F)F)c(C(F)(F)C(F)(F)F)nn3C)c2)c1 [Ic-63]	95	100	100			100						100			
CC(C)C(C)NC(=O)c1cc(-c2cnn(-c3c(C(F)(F)F)c(C(F)(F)C(F)(F)F)nn3C)c2)ccc1Cl (centres unmarked) [Ic-137]	100	100	100		100	83									
Cc1cc(C(=O)NC2(C#N)CC2)cc(-c2cnn(-c3c(C(F)(F)F)c(C(F)(F)C(F)(F)F)nn3C)c2)c1 [Ic-56]	100	100	100			100						90			
CON=Cc1c(C(F)(F)F)nn(C)c1-n1cc(-c2ccc(Cl)c(C(=O)NC3(C#N)CC3)c2)cn1 (mixture of isomers) [Ic-99]	100	100	80							3.09		100	100		
Cn1nc(C(F)(F)C(F)(F)F)c(C(F)(F)F)c1-n1cc(-c2ccc(Cl)c(C(=O)NCc3cccs3)c2)cn1 [Ic-10]	98	100	100							4.40	100	100	100		
Cc1cc(C(=O)NC2CC2)cc(-c2cnn(-c3c(C(F)(F)F)c(C(F)(F)C(F)(F)F)nn3C)c2)c1 [Ic-54]	100	100	100			100								100	100
